Measured values from PubChem BioAssay (NCI).
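Here, GI50 denotes the concentration required for 50% inhibition of growth. TGI is the concentration that stops growth completely.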

Legend:
Assay in all cases: NCI tumour cell line growth inhibition, 384-well format
OVCAR-5 ovarian = tested on: OVCAR-5 ovarian
HL-60(TB) leukemia = tested on: HL-60(TB) leukemia
EKVX NSCLC = tested on: EKVX NSCLC
OVCAR-3 ovarian = tested on: OVCAR-3 ovarian
NCI-H226 lung = tested on: NCI-H226 lung
DU-145 prostate = tested on: DU-145 prostate
NCI-H322M lung = tested on: NCI-H322M lung
UO-31 renal = tested on: UO-31 renal
MDA-MB-468 breast = tested on: MDA-MB-468 breast
CCRF-CEM leukemia = tested on: CCRF-CEM leukemia
SNB-75 CNS = tested on: SNB-75 CNS
SN12C renal = tested on: SN12C renal
K-562 leukemia = tested on: K-562 leukemia
COLO 205 colon = tested on: COLO 205 colon
OVCAR-8 ovarian = tested on: OVCAR-8 ovarian
HOP-62 NSCLC = tested on: HOP-62 NSCLC
MOLT-4 leukemia = tested on: MOLT-4 leukemia
M14 melanoma = tested on: M14 melanoma
SK-OV-3 ovarian = tested on: SK-OV-3 ovarian
UACC-257 melanoma = tested on: UACC-257 melanoma
OVCAR-4 ovarian = tested on: OVCAR-4 ovarian
A549 NSCLC = tested on: A549 NSCLC
PC-3 prostate = tested on: PC-3 prostate
SR leukemia = tested on: SR leukemia
KM12 colon = tested on: KM12 colon
NCI-H460 NSCLC = tested on: NCI-H460 NSCLC
LOX IMVI melanoma = tested on: LOX IMVI melanoma
SF-539 CNS = tested on: SF-539 CNS
SF-268 CNS = tested on: SF-268 CNS
U251 glioblastoma = tested on: U251 glioblastoma
MDA-MB-231 breast = tested on: MDA-MB-231 breast
NCI/ADR-RES ovarian = tested on: NCI/ADR-RES ovarian
HOP-92 NSCLC = tested on: HOP-92 NSCLC
RXF 393 renal = tested on: RXF 393 renal
NCI-H23 lung = tested on: NCI-H23 lung
T-47D breast = tested on: T-47D breast
SF-295 CNS = tested on: SF-295 CNS
HCC-2998 colon = tested on: HCC-2998 colon
HT29 colon = tested on: HT29 colon
NCI-H522 lung = tested on: NCI-H522 lung
IGROV1 ovarian = tested on: IGROV1 ovarian
SK-MEL-28 melanoma = tested on: SK-MEL-28 melanoma
MALME-3M melanoma = tested on: MALME-3M melanoma
MDA-MB-435 melanoma = tested on: MDA-MB-435 melanoma
SK-MEL-5 melanoma = tested on: SK-MEL-5 melanoma
SW-620 colon = tested on: SW-620 colon
CAKI-1 renal = tested on: CAKI-1 renal
SNB-19 CNS = tested on: SNB-19 CNS
HS 578T breast = tested on: HS 578T breast
HCT-15 colon = tested on: HCT-15 colon
TK-10 renal = tested on: TK-10 renal
ACHN renal = tested on: ACHN renal
RPMI-8226 leukemia = tested on: RPMI-8226 leukemia
BT-549 breast = tested on: BT-549 breast
MCF7 breast = tested on: MCF7 breast
786-0 renal = tested on: 786-0 renal
A498 renal = tested on: A498 renal
HCT-116 colon = tested on: HCT-116 colon

Q: What does the source list for `Cc1ccccc1N=Nc1ccc(NC(=O)c2ccnn2C)c(C)c1`?
A: GI50 (OVCAR-5 ovarian): > 100 µM; TGI (OVCAR-5 ovarian): > 100 µM; GI50 (HL-60(TB) leukemia): 34.4 µM; TGI (HL-60(TB) leukemia): > 100 µM; GI50 (EKVX NSCLC): 23.2 µM; TGI (EKVX NSCLC): > 100 µM; GI50 (OVCAR-3 ovarian): > 100 µM; TGI (OVCAR-3 ovarian): > 100 µM; GI50 (NCI-H226 lung): 31.5 µM; TGI (NCI-H226 lung): > 100 µM; GI50 (DU-145 prostate): > 100 µM; TGI (DU-145 prostate): > 100 µM; GI50 (NCI-H322M lung): 51.9 µM; TGI (NCI-H322M lung): > 100 µM; GI50 (UO-31 renal): > 100 µM; TGI (UO-31 renal): > 100 µM; GI50 (MDA-MB-468 breast): 3.87 µM; TGI (MDA-MB-468 breast): 59.4 µM; GI50 (CCRF-CEM leukemia): 13.8 µM; TGI (CCRF-CEM leukemia): > 100 µM; GI50 (SNB-75 CNS): 25.8 µM; TGI (SNB-75 CNS): 99.7 µM; GI50 (SN12C renal): > 100 µM; TGI (SN12C renal): > 100 µM; GI50 (K-562 leukemia): 7.47 µM; TGI (K-562 leukemia): > 100 µM; GI50 (COLO 205 colon): > 100 µM; TGI (COLO 205 colon): > 100 µM; GI50 (OVCAR-8 ovarian): 46.4 µM; TGI (OVCAR-8 ovarian): > 100 µM; GI50 (HOP-62 NSCLC): 37.2 µM; TGI (HOP-62 NSCLC): > 100 µM; GI50 (MOLT-4 leukemia): 30.4 µM; TGI (MOLT-4 leukemia): > 100 µM; GI50 (M14 melanoma): > 100 µM; TGI (M14 melanoma): > 100 µM; GI50 (SK-OV-3 ovarian): > 100 µM; TGI (SK-OV-3 ovarian): > 100 µM; GI50 (UACC-257 melanoma): 40.2 µM; TGI (UACC-257 melanoma): > 100 µM; GI50 (OVCAR-4 ovarian): 47.7 µM; TGI (OVCAR-4 ovarian): > 100 µM; GI50 (A549 NSCLC): > 100 µM; TGI (A549 NSCLC): > 100 µM; GI50 (PC-3 prostate): > 100 µM; TGI (PC-3 prostate): > 100 µM; GI50 (SR leukemia): 2 µM; TGI (SR leukemia): 7.31 µM; GI50 (KM12 colon): > 100 µM; TGI (KM12 colon): > 100 µM; GI50 (NCI-H460 NSCLC): 6.69 µM; TGI (NCI-H460 NSCLC): 27.3 µM; GI50 (LOX IMVI melanoma): 39.4 µM; TGI (LOX IMVI melanoma): > 100 µM; GI50 (SF-539 CNS): > 100 µM; TGI (SF-539 CNS): > 100 µM; GI50 (SF-268 CNS): 96.7 µM; TGI (SF-268 CNS): > 100 µM; GI50 (U251 glioblastoma): 18 µM; TGI (U251 glioblastoma): 73.1 µM; GI50 (MDA-MB-231 breast): 92.8 µM; TGI (MDA-MB-231 breast): > 100 µM; GI50 (NCI/ADR-RES ovarian): 6.99 µM; TGI (NCI/ADR-RES ovarian): > 100 µM; GI50 (HOP-92 NSCLC): 34.8 µM; TGI (HOP-92 NSCLC): > 100 µM; GI50 (RXF 393 renal): 5.29 µM; TGI (RXF 393 renal): 23.7 µM; GI50 (NCI-H23 lung): 13.6 µM; TGI (NCI-H23 lung): > 100 µM; GI50 (T-47D breast): 8.3 µM; TGI (T-47D breast): > 100 µM; GI50 (SF-295 CNS): 27.1 µM; TGI (SF-295 CNS): > 100 µM; GI50 (HCC-2998 colon): > 100 µM; TGI (HCC-2998 colon): > 100 µM; GI50 (HT29 colon): > 100 µM; TGI (HT29 colon): > 100 µM; GI50 (NCI-H522 lung): 15.4 µM; TGI (NCI-H522 lung): 93.1 µM; GI50 (IGROV1 ovarian): > 100 µM; TGI (IGROV1 ovarian): > 100 µM; GI50 (SK-MEL-28 melanoma): > 100 µM; TGI (SK-MEL-28 melanoma): > 100 µM; GI50 (MALME-3M melanoma): > 100 µM; TGI (MALME-3M melanoma): > 100 µM; GI50 (MDA-MB-435 melanoma): > 100 µM; TGI (MDA-MB-435 melanoma): > 100 µM; GI50 (SK-MEL-5 melanoma): 11.2 µM; TGI (SK-MEL-5 melanoma): 87.1 µM; GI50 (SW-620 colon): > 100 µM; TGI (SW-620 colon): > 100 µM; GI50 (CAKI-1 renal): > 100 µM; TGI (CAKI-1 renal): > 100 µM; GI50 (SNB-19 CNS): > 100 µM; TGI (SNB-19 CNS): > 100 µM; GI50 (HS 578T breast): 27.8 µM; TGI (HS 578T breast): > 100 µM; GI50 (HCT-15 colon): 54.4 µM; TGI (HCT-15 colon): > 100 µM; GI50 (TK-10 renal): 63.7 µM; TGI (TK-10 renal): > 100 µM; GI50 (ACHN renal): 95.2 µM; TGI (ACHN renal): > 100 µM; GI50 (RPMI-8226 leukemia): 5.58 µM; TGI (RPMI-8226 leukemia): > 100 µM; GI50 (BT-549 breast): 48.6 µM; TGI (BT-549 breast): > 100 µM; GI50 (MCF7 breast): 36.8 µM; TGI (MCF7 breast): > 100 µM; GI50 ([…]-0 renal): 68.8 µM; TGI (786-0 renal): > 100 µM; GI50 (A498 renal): 90.4 µM; TGI (A498 renal): > 100 µM; GI50 (HCT-116 colon): 13.1 µM; TGI (HCT-116 colon): > 100 µM
